Measurements: article PMC3985856 (Biochemistry, 2014)

Target: T1, BAL (benzaldehyde lyase) (Pseudomonas fluorescens, UniProt Q9F4L3)
T1 sequence (Q9F4L3 1-563): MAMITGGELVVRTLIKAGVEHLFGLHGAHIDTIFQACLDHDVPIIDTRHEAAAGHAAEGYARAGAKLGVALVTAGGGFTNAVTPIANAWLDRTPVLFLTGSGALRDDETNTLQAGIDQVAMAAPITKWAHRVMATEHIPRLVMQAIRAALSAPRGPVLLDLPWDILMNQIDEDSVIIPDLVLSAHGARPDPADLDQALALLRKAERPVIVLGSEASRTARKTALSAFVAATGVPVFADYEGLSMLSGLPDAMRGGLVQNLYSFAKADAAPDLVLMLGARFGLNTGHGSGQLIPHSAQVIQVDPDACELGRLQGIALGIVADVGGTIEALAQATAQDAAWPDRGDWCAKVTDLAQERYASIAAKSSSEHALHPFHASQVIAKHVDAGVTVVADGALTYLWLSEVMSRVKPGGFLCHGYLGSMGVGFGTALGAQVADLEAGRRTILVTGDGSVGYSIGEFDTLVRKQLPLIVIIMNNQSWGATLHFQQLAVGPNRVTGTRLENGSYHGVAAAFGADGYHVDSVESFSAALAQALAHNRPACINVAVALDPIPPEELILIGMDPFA
Assay: CD titration, Hill fit
Format: binding
Conditions: pH 8.0, 50 mM Tris, 0.2 mM ThDP, 1 mM MgCl2, 30 °C; covalent adduct with ThDP

In the case of O=C(O)C(=O)/C=C/c1ccc(Cl)cc1 [CPB, (E)-4-(4-chlorophenyl)-2-oxo-3-butenoic acid], the Kd is reported as 1100 µM.
